In patent publication US20260021193A1, “IMMUNOCONJUGATES AND METHODS” (Immunome, Inc., priority 2022, published 2026):
Counter-ions that a name gives are not always drawn. Like-named read-outs stand apart in the source and are kept apart here.

What was measured:
[1] = Human liver microsome clearance (HLM CL); format: in vitro ADME; design: CLint scaled / half-life: dose or concentration left out as unconfirmed
Experimental: Working solution was prepared by adding 5 μL of compound and control stock solution (10 mM in dimethyl sulfoxide, DMSO) to 495 μL of acetonitrile (ACN) (intermediate solution concentration: 100 μM, 99% CAN and 1% DMSO. The appropriate concentrations of microsome working solutions were prepared in 100 mM potassium phosphate buffer. After reaction plates containing mixtures of compound and microsomes were pre-incubated at 37° C. for 10 min, […] of 2 mM of NADPH and 2 mM of MgCl2 solution was added to start the reaction. The final concentrations of incubation medium were as follows: microsome—0.5 mg protein/mL, test compound/control […], NADPH—1 mM, MgCl2—1 mM, acetonitrile 0.99%, DMSO 0.01%. Incubations were performed at 37° C. for 60 min. Samples were taken out at T0, T5, T15, T30, T45 and T60, which was added intermediately to the ice-cold stop solution (acetonitrile with 200 ng/mL of to butamide and labetalol as internal standard) (125 μl), shaken for 10 min, centrifuged at 4000 rpm for 20 min at 4° C. Analytical plates were analyzed by LCMS.
(§1) Human liver microsome clearance assay assess metabolism by the cytochrome P450 system (phase I enzymes). These enzymes oxidize substrates by incorporating oxygen atoms into hydrocarbons, thus causing the introduction of hydroxyl groups, or N- O- and S-dealkylation of substrates and forming more polar products easier to be cleared. Human hepatocyte clearance assay measures more broadly the overall cellular metabolism of the test compound (phase I and phase II enzyme pathways). Phase II enzymes catalyze the conjugation reaction of xenobiotic metabolites and charged species, such as glutathione, sulfate, glycine, or glucuronic acid to form even more polar compounds for easier clearance.

[2] = Human hepatocyte clearance (HHEP CL); format: in vitro ADME; design: CLint scaled / half-life: dose or concentration left out as unconfirmed; conditions: for half-life / CLint scaled: both sexes
Experimental: Suspensions of human hepatocytes (from 10 mixed gender human donors, final concentration 0.5×10^6 cell/mL) in Williams' E medium were incubated for 90 min with a test compound (0.90% acetonitrile and 0.10% DMSO, final concentration […]) and positive controls (7-Ethoxycoumarin, 7-Hydroxycoumarin, 0.90% acetonitrile and 0.10% DMSO, final concentration […]), with constant shaking at about 600 rpm at 37° C. in an incubator at 5% CO2 and 95% humidity. The total volume of incubation was 200 μl. A sample ([…]) was taken out at T0, 15, 30, 60 and 90 min, which was added intermediately to the ice-cold stop solution (acetonitrile with 200 ng/mL of to butamide and labetalol as internal standard) (125 μl), and vortexed at 500 rpm for 10 min, centrifuged at 3220×g for 20 min at 4° C. Analytical plates were sealed and stored at 4° C. until LCMS analysis. Viability of hepatocytes at pre-incubation was determined to be 84.5%.
as §1

[3] = PAMPA (Parallel Artificial Membrane Permeability Assay); format: physicochemical; design: dose or concentration left out as unconfirmed
Description: PAMPA is a method which determines the permeability of substances from a donor compartment, through a lipid-infused artificial membrane into an acceptor compartment. See Ottaviani, G.; Martel, S.; Carrupt, P-A. “Parallel Artificial Membrane Permeability Assay: A New Membrane for the Fast Prediction of Passive Human Skin Permeability”, Journal of Medicinal Chemistry, 2006, 49 (13), 3948-3954). A multi-well microtitre plate is used for the donor and a membrane/acceptor compartment is placed on top; the whole assembly is commonly referred to as a “sandwich”. At the beginning of the test, the drug is added to the donor compartment, and the acceptor compartment is drug-free. After an incubation period which may include stirring, the sandwich is separated, and the amount of drug is measured in each compartment. Mass balance allows calculation of drug that remains in the membrane.
The PAMPA was performed by Pion Inc using the GIT-0 lipid and 5 mM donor solution in pH 5.0 and pH 7.4 PRISMA buffer (containing 0.05% DMSO). The higher PAMPA data has been associated with better bystander killing. (Ogitani Y.; Hagihara K.; Oitate, M.; Naito, H.; Agatsuma T. “Bystander killing effect of DS-8201a, a novel anti-human epidermal growth factor receptor 2 antibody-drug conjugate, in tumors with human epidermal growth factor receptor 2 heterogeneity” Cancer Science, 2016, 107 (7), 1039-1046).

Jeko-1 = experiment: CTG assay of payloads, Jeko-1 cells; format: cell-based, human; conditions: 72 h, CellTiter-Glo
Description: (§2) The CTG assay is a method of determining the number of viable cells in culture based on quantitation of the ATP present, an indicator of metabolically active cells. The cell assay requires the addition of a single reagent, Cell Titer Glo, in which cells are lysed and generation of a luminescent signal is produced. The luminescent signal is proportional to the amount of ATP present. The amount of ATP is directly proportional to the number of cells present in culture. For this assay, cells were ensured to be in log-phase for either Jeko-1 or MDA-MB-468. Cells were transferred to 96 wells and treated with compounds in three-fold serial dilution starting from […] (10 points dilution), for 72 h. Cell viability was analyzed with CellTiter-Glo® Luminescent Cell Viability Assay (Promega) following manufactures' instruction. Percentage of viable cells in each compound concentration was determined by normalizing with the luminescence of vehicle control and plotted into percentage of viability versus dose response curve by nonlinear fit in GraphPad Prism software.

MDA-MB-468 = experiment: CTG assay of payloads, MDA-MB-468 cells; format: cell-based, human; conditions: Table 1, 72 h, CellTiter-Glo
Description: as §2

SMILES | half-life ([1]; human, microsomes) [min] | half-life ([2]; human, hepatocytes) [min] | Papp ([3]; pH 5) [nm/s] | Papp ([3]; pH 7.4) [nm/s] | IC50 (Jeko-1; Homo sapiens, JeKo-1, Table 2) [nM] | further results
CC[C@@]1(O)C(=O)OCc2c1cc1n(c2=O)Cc2c-1nc1cc(F)c(C)c3c1c2[C@](C)(CCCO)CC3 (single isomer, unassigned) [Compound 15-75] | 22.4 | 76.5 | 165 | 115 | 0.88 | –
C=CC[C@@H]1CCc2c(C)c(F)cc3nc4c(c1c23)Cn1c-4cc2c(c1=O)COC(=O)[C@]2(O)CC (single isomer, unassigned) [Compound 17-86] | 13 | 46 | – | – | 0.93 | –
CC[C@@]1(O)C(=O)OCc2c1cc1n(c2=O)Cc2c-1nc1cc(F)c(C)c3c1c2[C@H](CCCO)CC3 (single isomer, unassigned) [Compound 13-63] | 27.1 | 141 | 347 | 329 | 0.44 | –
CC[C@@]1(O)C(=O)OCc2c1cc1n(c2=O)Cc2c-1nc1cc(F)c(C)c3c1c2[C@@](C)(COCCO)CC3 (single isomer, unassigned) [Compound 16-83] | 25.7 | 113 | 477 | 251 | 1.1 | –
CC[C@@]1(O)C(=O)OCc2c1cc1n(c2=O)Cc2c-1nc1cc(F)c(C)c3c1c2C(CO)(CO)CC3 [Compound 2-20, (S)-9-ethyl-5-fluoro-9-hydroxy-1,1-bis(hydroxymethyl)-4-methyl-2,3,12,15-tetrahydrobenzo [de]pyrano[3′,4′:6,7]indolizino[1,2-b]quinoline-10,13(1H,9H)-dione] | 27 | 161 | – | – | – | IC50 (MDA-MB-468; Homo sapiens, MDA-MB-468): 351 nM; CLint scaled ([1]; human, microsomes): 2.76 L/h/kg; CLint scaled ([2]; human, hepatocytes): 1.44 L/h/kg; IC50 (Jeko-1; Homo sapiens, JeKo-1, Table 1): 40.8 nM
C=CC[C@H]1CCc2c(C)c(F)cc3nc4c(c1c23)Cn1c-4cc2c(c1=O)COC(=O)[C@]2(O)CC (single isomer, unassigned) [Compound 17-87] | 5.4 | 31 | – | – | 0.58 | –
CC[C@@]1(O)C(=O)OCc2c1cc1n(c2=O)Cc2c-1nc1cc(F)c(C)c3c1c2[C@@](C)(N(C)CCO)CC3.Cl (single isomer, unassigned) [Compound 6-44, hydrochloride] | – | – | – | – | – | IC50 (MDA-MB-468; Homo sapiens, MDA-MB-468): 198 nM; CLint scaled ([1]; microsomes, Table 1, human liver microsome clearance, read-out: HLM Cl): 3.1 L/h/kg; CLint scaled ([2]; Table 1, human hepatocytes intrinsic clearance, read-out: HHEP Cl): 2.9 L/h/kg; IC50 (Jeko-1; Homo sapiens, JeKo-1, Table 1): 24.1 nM
CC[C@@]1(O)C(=O)OCc2c1cc1n(c2=O)Cc2c-1nc1cc(F)c(C)c3c1c2[C@@H](CCO)CC3 (single isomer, unassigned) [Compound 12-59] | 20.1 | 64.3 | 469 | 334 | 0.32 | –
CC[C@@]1(O)C(=O)OCc2c1cc1n(c2=O)Cc2c-1nc1cc(F)c(C)c3c1c2[C@](C)(N1CC[C@@H](O)C1)CC3 (single isomer, unassigned) [Compound 5-40] | 5.2 | 38 | 522 | 60 | – | IC50 (MDA-MB-468; Homo sapiens, MDA-MB-468): 69.1 nM; CLint scaled ([1]; human, microsomes): 14.3 L/h/kg; CLint scaled ([2]; human, hepatocytes): 6.12 L/h/kg; IC50 (Jeko-1; Homo sapiens, JeKo-1, Table 1): 10 nM
CC[C@@]1(O)C(=O)OCc2c1cc1n(c2=O)Cc2c-1nc1cc(F)c(C)c3c1c2[C@](C)(N(C)CCO)CC3 (single isomer, unassigned) [Compound 7-45, hydrochloride] | 9 | 42 | 566 | 75 | – | IC50 (MDA-MB-468; Homo sapiens, MDA-MB-468): 258 nM; CLint scaled ([1]; human, microsomes): 8.22 L/h/kg; CLint scaled ([2]; human, hepatocytes): 5.53 L/h/kg; IC50 (Jeko-1; Homo sapiens, JeKo-1, Table 1): 33.5 nM
CC[C@@]1(O)C(=O)OCc2c1cc1n(c2=O)Cc2c-1nc1cc(F)c(C)c3c1c2[C@@](C)(N(C)CCO)CC3.Cl (single isomer, unassigned) [Compound 6-44] | – | – | – | – | – | half-life ([1]; Table 1, human liver microsomes, read-out: HLM (T1/2)): 24 min; half-life ([2]; Table 1, human hepatocytes, read-out: HHEP (T1/2)): 80 min; Papp ([3]; Table 1, pH 5.0, read-out: PAMPA Pe pH 5.0): 549 nm/s; Papp ([3]; Table 1, pH 7.4, read-out: PAMPA Pe pH 7.4): 83 nm/s
CC[C@@]1(O)C(=O)OCc2c1cc1n(c2=O)Cc2c-1nc1cc(F)c(C)c3c1c2[C@@](C)(CCO)CC3 (single isomer, unassigned) [Compound 14-71] | 10.8 | 47 | 250 | 173 | 0.18 | –
CC[C@@]1(O)C(=O)OCc2c1cc1n(c2=O)Cc2c-1nc1cc(F)c(C)c3c1c2[C@H](CCO)CC3 (single isomer, unassigned) [Compound 12-58] | 20.1 | 68.1 | 29 | 38 | 0.24 | –
CC[C@@]1(O)C(=O)OCc2c1cc1n(c2=O)Cc2c-1nc1cc(F)c(C)c3c1c2[C@](C)(COCCO)CC3 (single isomer, unassigned) [Compound 16-82] | 5.6 | 45 | 548 | 255 | 0.64 | –
CC[C@@]1(O)C(=O)OCc2c1cc1n(c2=O)Cc2c-1nc1cc(F)c(C)c3c1c2[C@@H](NC(=O)CO)CC3 [Dxd, reference compound] | – | – | – | – | – | IC50 (MDA-MB-468): 11.6 nM; HLM Cl ([1]; Table 1, human liver microsome clearance): 0.516 L/h/kg; HLM (T1/2) ([1]; Table 1, human liver microsomes): (>145); HLM Cl (T1/2) ([1]; Table 2, one value per cell): 52.2; HHEP (T1/2) ([2]; Table 1, human hepatocytes): (217) min; HHEP Cl ([2]; Table 1, human hepatocytes intrinsic clearance): 1.07 L/h/kg; HHEP Cl (T1/2) ([2]; Table 2, one value per cell): >217; IC50 (Jeko-1; Table 1): 1.42 nM; IC50 (Jeko-1; Table 2): 0.52 nM
CC[C@@]1(O)C(=O)OCc2c1cc1n(c2=O)Cc2c-1nc1cc(F)c(C)c3c1c2[C@@H](CCCO)CC3 (single isomer, unassigned) [Compound 13-64] | 22 | 79.4 | 146 | 106 | 0.28 | –
CC[C@@]1(O)C(=O)OCc2c1cc1n(c2=O)Cc2c-1nc1cc(F)c(C)c3c1c2[C@@](C)(CCCO)CC3 (single isomer, unassigned) [Compound 15-76] | 5.2 | 40.8 | 455 | 332 | 0.27 | –
CC[C@@]1(O)C(=O)OCc2c1cc1n(c2=O)Cc2c-1nc1cc(F)c(C)c3c1c2[C@](C)(CCO)CC3 (single isomer, unassigned) [Compound 14-70] | 18.4 | 53.6 | 442 | 285 | 0.79 | –
